Several values for one entry are separate records, joined by “and”; a condition that tells them apart may be missing. Equal entries are not always repeated. Where two headings read alike, the source gives them in different places.
Tests used:
[1] = biological target: T1, acetylcholinesterase (AChE) isolated from Electrophorus electricus (Electrophorus electricus, UniProt O42275); assay: biochemical
T1 construct: AChE isolated from Electrophorus electricus; from tissue

[2] = biological target: T2, human serum butyrylcholinesterase (BChE) (Homo sapiens, UniProt P06276); assay: biochemical; conditions: human serum BChE; read-out: BChE
T2 construct: BChE isolated from human serum; from tissue; host or cells: human serum
T2 sequence (P06276 29-602): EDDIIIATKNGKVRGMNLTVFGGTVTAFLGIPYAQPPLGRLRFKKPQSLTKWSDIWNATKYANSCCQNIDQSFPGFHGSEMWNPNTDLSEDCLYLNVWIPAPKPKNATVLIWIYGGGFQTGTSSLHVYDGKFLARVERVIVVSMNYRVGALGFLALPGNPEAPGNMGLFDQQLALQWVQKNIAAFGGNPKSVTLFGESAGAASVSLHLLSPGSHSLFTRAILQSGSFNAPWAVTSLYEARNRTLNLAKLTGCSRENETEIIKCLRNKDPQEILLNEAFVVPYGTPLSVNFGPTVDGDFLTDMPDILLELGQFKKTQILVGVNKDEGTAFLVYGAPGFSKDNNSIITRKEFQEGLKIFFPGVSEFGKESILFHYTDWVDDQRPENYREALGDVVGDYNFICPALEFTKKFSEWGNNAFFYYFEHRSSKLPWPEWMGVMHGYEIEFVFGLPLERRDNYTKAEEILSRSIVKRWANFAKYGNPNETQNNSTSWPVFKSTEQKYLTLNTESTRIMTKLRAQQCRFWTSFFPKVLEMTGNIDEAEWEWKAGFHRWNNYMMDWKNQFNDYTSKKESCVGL

[3] = AChE isolated from Electrophorus electricus, read-out: AChE IC50

T1 sequence (O42275 24-633): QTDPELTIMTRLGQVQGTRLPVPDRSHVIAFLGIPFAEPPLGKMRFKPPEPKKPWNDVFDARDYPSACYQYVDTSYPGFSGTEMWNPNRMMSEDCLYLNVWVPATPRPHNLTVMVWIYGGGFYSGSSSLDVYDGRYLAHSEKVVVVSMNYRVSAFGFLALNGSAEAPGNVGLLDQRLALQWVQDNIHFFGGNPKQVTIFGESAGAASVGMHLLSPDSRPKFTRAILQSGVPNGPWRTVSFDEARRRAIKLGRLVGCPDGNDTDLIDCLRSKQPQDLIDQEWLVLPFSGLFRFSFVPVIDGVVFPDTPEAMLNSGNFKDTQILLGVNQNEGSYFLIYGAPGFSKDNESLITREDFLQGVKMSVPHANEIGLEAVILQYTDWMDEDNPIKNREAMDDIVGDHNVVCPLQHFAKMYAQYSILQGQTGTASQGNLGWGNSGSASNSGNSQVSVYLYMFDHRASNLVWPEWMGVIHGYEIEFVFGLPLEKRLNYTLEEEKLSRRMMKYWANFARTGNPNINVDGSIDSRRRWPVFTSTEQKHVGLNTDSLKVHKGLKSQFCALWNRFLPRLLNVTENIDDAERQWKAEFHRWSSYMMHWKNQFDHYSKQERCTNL

Row | SMILES | IC50 [1, 3] | IC50 [2] | IC50 ([1]; AChE IC50)
1 | CC(C)C1=NC2CC=C3C[C@H]4C(=O)C[C@]5(C)[C@@H]([C@H](C)N(C)C)[C@H](O)C[C@@]5(C)[C@@H]4CC[C@H]3[C@]2(C)CO1 (stereo partly drawn) [Compound 1, (20S)-10(9->1)abeo-4,14α-dimethyl-20-dimethylamino-(2′-isopropyl-4′,4′-dihydro[3′,1′]oxazine)-5α,9-pregn-1(10)-en-16α-ol-11-one] | 31 nM and 32 nM | > 1000 nM | –
2 | C[C@@H]([C@H]1[C@H](O)C[C@@]2(C)[C@@H]3CC[C@@H]4C5(CC[C@H](N)[C@@]4(C)CO)C[C@@]35[C@@H](O)C[C@]12C)N(C)C (stereo partly drawn) [Compound 28, (20S)-3-amino-9,19-cyclo-4α-hydroxymethyl-4,14α-dimethyl-20-dimethylamino-5α,9-pregnan-16α,11-diol-11-one] | > 1000 nM | 2450 nM | –
3 | CCC(C)C(=O)N[C@H]1CC=C2C[C@H]3C(=O)C[C@]4(C)[C@@H]([C@H](C)N(C)C)[C@H](O)C[C@@]4(C)[C@@H]3CC[C@H]2[C@]1(C)CO (stereo partly drawn) [Compound 7e, (20S)-10(9->1)abeo-4α-hydroxymethyl-4,14α-dimethyl-20-dimethylamino-3 (S-2-methylbutyrylamino)-5α,9-pregn-1(10)-en-16α-ol-11-one] | – | > 10000 nM | 105 nM
4 | C[C@@H]([C@H]1[C@H](O)C[C@@]2(C)[C@@H]3CC[C@H]4[C@](C)(CO)[C@@H](N)CC[C@@]45CC35C(=O)C[C@]12C)N(C)C (stereo partly drawn) [Compound 5, (20S)-3-amino-9,19-cyclo-4α-hydroxymethyl-4,14α-dimethyl-20-dimethylamino-5α,9-pregnan-16α-ol-11-one] | > 5000 nM | > 30000 nM | –
5 | C[C@@H]([C@H]1[C@H](O)C[C@@]2(C)[C@@H]3CC[C@@H]4C(=CC[C@H](NC(=O)c5ccccc5)[C@@]4(C)CO)C[C@H]3C(=O)C[C@]12C)N(C)C [Compound 7b, (20S)-10(9->1)abeo-3-benzoylamino-4α-hydroxymethyl-4,14α-dimethyl-20-dimethylamino-5α,9-pregn-1(10)-en-16α-ol-11-one] | > 10000 nM | 1880 nM | –
6 | C[C@@H]([C@H]1[C@H](O)C[C@@]2(C)[C@@H]3CC[C@@H]4C(=CC[C@H](NC(=O)C5CCCCC5)[C@@]4(C)CO)C[C@H]3C(=O)C[C@]12C)N(C)C [Compound 7d, (20S)-10(9->1)abeo-3-(cyclohexanecarboxyamino)-4α-hydroxymethyl-4,14α-dimethyl-20-dimethylamino-5α,9-pregn-1(10)-en-16α-ol-11-one] | > 1000 nM | 4020 nM | –
7 | C[C@@H]([C@H]1[C@H](O)C[C@@]2(C)[C@@H]3CC[C@H]4[C@](C)(CO)[C@@H](NC(=O)c5ccccc5)CC[C@@]45CC35C(=O)C[C@]12C)N(C)C (stereo partly drawn) [Compound 6b, (20S)-3-benzoylamino-9,19-cyclo-4α-hydroxymethyl-4,14α-dimethyl-20-dimethylamino-5α,9-pregnan-16α-ol-11-one] | > 10000 nM | 2210 nM | –
8 | C[C@@H]([C@H]1[C@H](O)C[C@@]2(C)[C@@H]3CC[C@@H]4C(=CC[C@H](N)[C@@]4(C)CO)C[C@H]3C(=O)C[C@]12C)N(C)C [Compound 11, (20S)-10(9->1)abeo-3-amino-4α-hydroxymethyl-4,14α-dimethyl-20-dimethylamino-5α,9-pregn-1(10)-en-16α-ol-11-one] | 1500 nM | > 10000 nM | –
9 | CC(C)C(=O)N[C@H]1CCC23C[C@]24C(=O)C[C@]2(C)[C@@H]([C@H](C)[N+](C)(C)[O-])[C@H](O)C[C@@]2(C)[C@@H]4CC[C@H]3[C@]1(C)CO (stereo partly drawn) [Compound 29, (20S)-3-isobutyrylamino-9,19-cyclo-4α-hydroxymethyl-4,14α-dimethyl-20-dimethylazinoyl-5α,9-pregnan-16α,11-ol-11-one] | 1420 nM | > 1000 nM | –

— patent US20120040930A1, “TETRACYCLIC TERPENE SERIES COMPOUNDS, METHODS FOR PREPARING SAME, USES THEREOF AS MEDICINES AND PHARMACEUTICAL COMPOUNDS CONTAINING SAME” (priority 2005, published 2012)
